In patent publication US7390892B2, “Nucleic acids encoding novel cyclic GMP dependent protein kinases from Elmeria maxima” (Merial Limited, priority 2001, dated 2008):
≈ marks a conversion by molar mass, not a printed value. Where “and” joins values, the source holds several entries; their conditions need not be identical. Equal values may be shown once.

Columns and labels:
[1] = target: Recombinant E. maxima PKG (Eimeria maxima, UniProt Q8MMZ5); assay: PKG catalytic assay, recombinant E. maxima PKG; type: biochemical
Text: T. gondii was selected as a host cell for recombinant expression of functional E. maxima PKG enzyme. An Eimeria maxima cDNA encoding the PKG open reading frame (ORF) was modified prior to subcloning for expression by appending either an N-terminal or C-terminal FLAG epitope for detection purposes via PCR amplification. DNA fragments encoding FLAG-epitope tagged PKGs were then placed in a T. gondii expression vector under the control of a Toxoplasma α-tubulin promoter (Soldati and Boothroyd, 1993, Science 260, 349-352). The vector encodes bacterial chloramphenicol acetyltransferase (CAT) as a selectable marker for transfection.
T. gondii tachyzoites of the RH strain were maintained by serial passage in primary human foreskin fibroblast cultures (HFF). Host cells were grown in Dulbecco's modified Eagle's medium with 10% heat-inactivated newborn bovine serum. […]
Recombinant FLAG-tagged E. maxima PKG was purified from T. gondii lysates by FLAG immuno-affinity chromatography. […] Protein was measured with a micro BCA reagent (Pierce), using a TCA/sodium deoxycholate step (Brown et al, 1989, Analytical Biochemistry 180, 136-139) to remove residual FLAG peptide prior to quantitation. […]
(§1) Kinase activity was detected using a peptide substrate and [γ-^33P]-ATP. […] In both cases filters were washed with 75 mM phosphoric acid, dried and ^33P-labelled phosphopeptide was detected by liquid scintillation counting.

Native E. maxima PKG = Native E. maxima PKG (Eimeria maxima, UniProt Q8MMZ5); assay: PKG catalytic assay, native E. maxima PKG; type: biochemical
Experimental: E. maxima unsporulated oocysts were harvested from the ceca of chickens seven days after infection with sporulated oocysts and purified using standard methods (Schmatz et al, 1986, J. Protozoology 33, 109-114). Soluble extracts were prepared by vortexing 2×10^9 E. maxima unsporulated oocysts with an equal volume of buffer (10 mM HEPES pH 7.4, 1 mM sodium orthovanadate, 20% glycerol, 0.1 mg/ml Bacitracin and 0.5% Sigma protease inhibitor cocktail P8340), and an equal volume of […] glass beads for 20 minutes. The resulting homogenate was centrifuged (100,000×g, 1 hour) and the supernatant (S100) collected. Native E. maxima PKG activity in the S100 fraction was affinity purified using an 8-AET-cGMP-agarose matrix as described below. • (iv) Isolation and Characterization of Native PKG from P. falciparum
Kinase activity was detected using a peptide substrate and [γ-^33P]-ATP. An aliquot containing the respective enzyme preparations was combined with a reaction mixture (10 μl) whose composition is as follows: 25 mM HEPES pH 7.4, 10 mM MgCl2, 20 mM beta-glycerophosphate, 5 mM beta-mercaptoethanol, 10 μM cGMP, 1 mg/ml BSA, 400 μM Kemptide, 2 μM [γ-^33P]ATP (0.1 mCi/ml). […] In both cases filters were washed with 75 mM phosphoric acid, dried and ^33P-labelled phosphopeptide was detected by liquid scintillation counting.

Native P. falciparum PKG = target: T1, Native P. falciparum PKG (Plasmodium falciparum, UniProt Q8I719); assay: PKG catalytic assay, native P. falciparum PKG; type: biochemical
T1 construct: endogenous in cells; host or cells: P. falciparum NF54, schizont/trophozoite-enriched cultures in human erythrocytes; MonoQ then 8-AET-cGMP-agarose
Experimental: The NF54 strain of P. falciparum was grown in 5% human O+ red blood cells in RPMI 1640 media supplemented with 10% heat-inactivated human serum and 3% hypoxanthine using modifications of standard conditions (Trager and Jensen, 1976, Science 193, 673-675). Media was changed daily and parasites were diluted into fresh erythrocytes to a parasitemia of 0.2-0.5% every 3 to 4 days; final parasitemia ranged from 4 to 10%. Synchronized cultures (Lambros and Vanderberg, 1979, J. Parasitology 65, 418-420) enriched for schizont and trophozoite stages were prepared in a continuous Percoll gradient (Rivadeneira et al, 1983 J. Protozoology 30, 367-370). […]
A linear NaCl gradient was applied (0-500 mM in 3ml @ 100 ul/min) and 100 ul fractions were collected and assayed for PKG enzyme activity. […] The purification of P. falciparum PKG was monitored by Western blot analysis using a commercially available antipeptide antisera directed at a conserved PKG peptide (Calbiochem Cat. No. 539729). • (v) PKG Catalytic Assay
as §1

Plasmodium falciparum = assay: PFAIV assay: tritiated hypoxanthine incorporation into parasitized red blood cells; type: cell-based; settings: Erythrocyte, in vitro cell culture, 48 hours, [3H]-hypoxanthine incorporation, read-out: concentration of compound required to inhibit growth by 50% (IC50)
Experimental: The PFAIV assay is an in vitro assay designed to identify potential inhibitors of P. falciparum by measuring the incorporation of tritiated hypoxanthine into parasitized red blood cells.
The following method is an adaptation of the method described by Desjardins, R. E. et al, 1979. AAC Vol 16, p710-718:
1. Sixty microliters of a solution of RPMI 1640 media plus gentamycin (1:100 dilution) containing the desired concentration of test compound is added to the wells of a 96-well plate. (For titrations, 120 microliters is added to the top well and the compounds are serially diluted into 60 microliters of media.)
2. Fifty three microliters of parasitized red blood cells is added to the wells. The parasitemia of the culture is approximately 2-3% and the hematocrit is 5%. The red blood cells are diluted in RPMI 1640 media containing 20% human A+ serum and gentamycin.
3. Twelve microliters of RPMI1640 media containing 200 uCi [^3H] - hypoxanthine is added to each well.
4. The plates are incubated at 37° C. for 48 hours under […] (candle jar). After incubation, the plates are frozen overnight (for safety), then thawed and harvested using a manual 96-well harvester onto UNIFILTER GF/B plates.
5. The plates are counted on a Wallac instrument and % inhibition of parasite growth is determined as compared to control wells containing no compound.

P. berghei = assay: Parasitemia in mice infected with P. berghei; type: in vivo; settings: Balb C mice, individual mice 1-5
Experimental: Balb C mice were infected intra-peritoneally with 1×10^6 P. berghei parasites in red blood cells. Two hours later twice daily intra-peritoneal treatment began with L-167645 in 10% DMSO. In the experiments described within, five animals were dosed with 75 milligrams compound per kilogram body weight (mpk) and received two treatments for one day. Five additional mice were dosed at 50 mpk and received two treatments daily for five days. Five control mice were dosed with an equivalent volume of 10% DMSO twice daily for 5 days. Parasite burden was measured by counting infected red blood cells as a function of total red blood cells (% parasitemia) and was performed periodically; -parasitemia on day 8 post-infection are tabulated below.

E. maxima = assay: Efficacy against E. maxima in infected chickens (oocyst counts); type: in vivo; settings: 125 ppm in the feed, terminated on day 8
Experimental: Several studies have been conducted to evaluate the efficacy of […] against E. maxima in infected chickens. For efficacy studies against E. maxima alone, L-167645 was administered in the feed at doses from 25 to 150 ppm starting on day one. Birds were infected with 3.5×10^3 E. maxima sporalated oocysts on day 2 and medicated feed was continuously available at the respective doses for the duration of the study. The experiment was terminated on day 8, intestines were removed and homogenized and compound efficacy was estimated by performing oocyst counts.

[2] = tested on: Mixed-species field isolate of Eimeria DP-924 (E. maxima, E. acervulina, E. mitis); assay: Chicken battery experiment, mixed-species Eimeria field isolate DP-924; type: in vivo; settings: chickens, field isolate DP-924, 125 ppm in feed
Text: (§2) Chicken battery experiments have also been conducted to evaluate L-167645 efficacy against mixed-species field isolates of Eimeria. The Eimeria cultures were obtained from grower farms in major broiler-producing states. Two of these field isolates, DP-924 and DP-968, contained E. maxima parasites. Each treatment group consisted of one pen of three one-week old White Leghorn chickens. Animals were placed on medicated feed at doses of L-167645 ranging from 25 to 150 ppm for the duration of the study. After 48 hrs, birds were infected by oral gavage with a total of 1×10^5 sporulated oocysts.

[3] = tested on: Mixed-species field isolate of Eimeria DP-968 (E. maxima, E. acervulina, E. mitis, E. tenella); assay: Chicken battery experiment, mixed-species Eimeria field isolate DP-968; type: in vivo; settings: chickens, field isolate DP-968, 125 ppm in feed
Text: as §2

C. parvum = assay: In vitro tissue culture based assay with C. parvum; type: cell-based

CN1CCC(c2cc(-c3ccncc3)c(-c3ccc(F)cc3)[nH]2)CC1 [L-167645, 4-[2-(4-fluorophenyl)-5-(1-methylpiperidine4-yl)-1H-pyrrol-3-yl]pyridine]
IC50 [1]: 4.2 nM | IC50 (Native E. maxima PKG): 4.6 nM | IC50 (Native P. falciparum PKG): 8.53 nM | IC50 (Plasmodium falciparum): 2.2 µg/mL (≈ 6.56 µM) | % parasitemia 8 days post-infection (P. berghei; 50 mpk intra-peritoneal, twice daily for five days, 50 mg/kg): 0% (2×) and 1% (2×) and 3% | % parasitemia 8 days post-infection (P. berghei; 75 mpk intra-peritoneal, two treatments for one day, 75 mg/kg): 3% and 4% and 1% (2×) and Dead | reduction in oocyst counts (E. maxima): greater than 99% | % Reduction in Oocyst Counts [2]: 97% | Relative % Weight Gain [2]: 108% | % Reduction in Oocyst Counts [3]: 86% | Relative % Weight Gain [3]: 94% | inhibition of parasitic growth (C. parvum): effective in inhibiting parasitic growth
